Test results: patent publication US4985449A, “N-benzoyl-N-pyridyloxy phenyl urea compounds and pesticide compositions containing them” (Ishihara Sangyo Kaisha Ltd., priority 1986, dated 1991)

Experiments:
Assay type in all cases: in vivo
[1] = system: house fly (Musca domestica); assay: Egg hatch inhibition test by the treatment of adults of house fly (Test Example 6); settings: po, 100 μg/g in diet of adult females for 3 days, unhatched eggs assessed one day after collection, read-out: ratio of the egg hatch inhibition (REHI)
Method: Sugar and skim milk were mixed in a weight ratio of 1:1, and 2 g of the mixture was put into a Petri dish having a diameter of 5.5 cm. 0.5 ml of an acetone solution containing the active ingredient was added to the mixture in the Petri dish. After acetone evaporated, the treated mixture was thoroughly mixed, and the concentration of the active ingredient was adjusted to 100 μg/g. Twenty non-mating females of house fly (Musca domestica) were allowed to feed on the poisoned diet (the treated mixture) in a cage. After 3 days, the diet was changed to the untreated mixture, then 20 non-mating males were released into the cage for mating. On the 3rd day after release, a cup of the medium for rearing fly larvae was set in the cage for oviposition for 7 hours. The egg laid on the medium were collected and kept on the moistened filter paper in a Petri dish. One day later, unhatched eggs were assessed and the ratio of the egg hatch inhibition (REHI) was calculated by the following equation: [formula]

[2] = system: diamondback moth (Plutella xylostella); assay: Insecticidal test against diamondback moth (Test Example 2); settings: 168 h, second or third instar larvae, 7th day after release, 26° C.
Text: (§1) Each formulation containing an active ingredient was dispersed in water to obtain a dispersion of each active ingredient having a concentration of 10 ppm. Leaves of cabbage were dipped in the respective dispersions for about 10 seconds, and then dried in air. A sheet of moistened filter paper was placed in a Petri dish having a diameter of 9 cm, and the dried leaves of cabbage were put on the filter paper. Larvae of diamondback moth (Plutella xylostella) in second or third instar were released on the leaves, and the Petri dishes were covered and kept in a constant temperature chamber with lightening at a temperature of 26° C. On the 7th day after release, dead insects were counted, and the mortality was calculated by the following equation: […]

[3] = system: common cutworm (Spodoptera litura); assay: Insecticidal test against common cutworm (Test Example 3); settings: 168 h, second or third instar larvae, 7th day after release
Text: as §1
The tests were conducted in the same manner as in Test Example 2 except that larvae of common cutworm (Spodoptera litura) in second or third instar were used instead of larvae of the diamondback moth in second or third instar, and the concentration of the active ingredient was changed from 10 ppm to 800 ppm or 1 ppm.

| Compound | inhibition at 100 µg/g [1] | mortality at 10 ppm [2] | mortality at 1 ppm [3] | mortality at 800 ppm [3] |
| --- | --- | --- | --- | --- |
| CN(C(=O)NC(=O)c1c(F)cccc1F)c1ccc(Oc2ccc(C(F)(F)F)cc2Cl)c(F)c1F [Compound No. 5, N-[4-(2-chloro-4-trifluoromethylphenoxy)-2,3-difluorophenyl]-N'-(2,6-difluorobenzoyl)-N-methylurea] | 100% |  |  |  |
| CN(C(=O)NC(=O)c1c(F)cccc1F)c1ccc(-c2ccc(Cl)cc2)c(F)c1 [Compound No. 31, N-[4'-chloro-2-fluoro-4biphenylyl)-N'-(2,6-difluorobenzoyl)-N-methylurea] | 100% |  |  |  |
| Cc1cc(N(C)C(=O)NC(=O)c2c(F)cccc2F)ccc1Oc1ncc(C(F)(F)F)cc1Cl [Compound No. 76] |  | 100% |  |  |
| CN(C(=O)NC(=O)c1ccccc1Br)c1ccc(Oc2ncc(C(F)(F)F)cc2Cl)cc1 [Compound No. 80] |  |  | 100% |  |
| CN(C(=O)NC(=O)c1c(F)cccc1F)c1ccc(Oc2ncc(C(F)(F)F)cc2Cl)c(Cl)c1 [compound 15, N-[3-chloro-4-(3-chloro-5-trifluoromethyl-2-pyridyloxy)-phenyl]-N'-(2,6-difluorobenzoyl)-N-methylurea] | 100% |  |  |  |
| Cc1cc(Oc2ncc(C(F)(F)F)cc2Cl)ccc1N(C)C(=O)NC(=O)c1c(F)cccc1F [compound 20, N-[4-(3-chloro-5-trifluoromethyl-2-pyridyloxy)-2-methylphenyl]-N'-(2,6-difluorobenzoyl)-N-methylurea] | 100% |  |  |  |
| CN(C(=O)NC(=O)c1c(F)cccc1F)c1ccc(Oc2ccc(SC(F)(F)F)cc2)cc1 [compound 39] |  | 100% |  |  |
| CN(C(=O)NC(=O)c1c(F)cccc1F)c1ccc(Oc2ccc(C(F)(F)F)cc2)cc1 [compound 40] |  | 90% |  |  |
| CN(C(=O)NC(=O)c1c(F)cccc1F)c1ccc(Oc2ccc(S(=O)(=O)C(F)(F)F)cc2)cc1 [compound 41] |  | 100% |  |  |
| CN(C(=O)NC(=O)c1c(F)cccc1F)c1ccc(Oc2ccc([N+](=O)[O-])cc2Cl)cc1 [compound 62] |  |  | 100% |  |
| Cc1ccccc1C(=O)NC(=O)N(C)c1ccc(Oc2ccc(C(F)(F)F)cc2Cl)c(F)c1 [compound 63] |  |  | 100% |  |
| Cc1cc(N(C)C(=O)NC(=O)c2ccccc2C)ccc1Oc1ccc(C(F)(F)F)cc1Cl [compound 64] |  |  | 90% |  |
| Cc1cc(N(C)C(=O)NC(=O)c2c(F)cccc2F)cc(C)c1Oc1ccc(C(F)(F)F)cc1Cl [compound 65] |  |  | 100% |  |
| Cc1ccccc1C(=O)NC(=O)N(C)c1cc(C)c(Oc2ccc(C(F)(F)F)cc2Cl)c(C)c1 [compound 66] |  |  | 100% |  |
| CN(C(=O)NC(=O)c1c(F)cccc1F)c1ccc(Oc2ncc(Cl)cc2C(F)(F)F)cc1 [compound 74] |  |  | 100% |  |
| COc1cc(N(C)C(=O)NC(=O)c2c(F)cccc2F)ccc1Oc1ncc(C(F)(F)F)cc1Cl [compound 75] |  | 90% | 90% |  |
| Cc1cc(N(C)C(=O)NC(=O)c2ccccc2Cl)ccc1Oc1ncc(C(F)(F)F)cc1Cl [compound 77, N-{4-[3-chloro-5-trifluoromethyl-2-pyridyloxy]-3-methylphenyl}-N'-(2-chlorobenzoyl)-N-methylurea] |  | 100% |  |  |
| CN(C(=O)NC(=O)c1c(F)cccc1F)c1ccc(-c2ccc(C(F)(F)F)cc2)cc1 [compound 108] |  | 100% | 100% | 100% |
| Cc1cc(-c2ccc(Br)cc2)ccc1N(C)C(=O)NC(=O)c1c(F)cccc1F [compound 109] |  | 100% | 100% | 100% |
| Cc1ccc(N(C)C(=O)NC(=O)c2c(F)cccc2F)cc1Oc1ccc(C(F)(F)F)cc1Cl [compound 115] |  |  | 100% |  |
| CN(C(=O)NC(=O)c1c(F)cccc1F)c1ccc(N(C)c2ncc(C(F)(F)F)cc2Cl)cc1 [compound 125] |  | 100% | 100% | 100% |
| CN(C(=O)NC(=O)c1c(F)cccc1F)c1ccc(N(C)c2ccc(C(F)(F)F)cc2Cl)cc1 [compound 126] |  | 100% | 100% | 100% |
